Laboratory results reported in US20210308089A1, “METHODS OF TREATING AND/OR PREVENTING VIRAL INFECTIONS AND/OR DISEASES CAUSED BY VIRUSES IN A SUBJECT IN NEED THEREOF” (priority 2020, published 2021).

How the values were obtained:
[1] = human, in vivo, 1 year
Experimental: Additional laboratory tests: Additional laboratory tests were performed and included: • A urine pregnancy test was administered to women of childbearing potential at certain visits as listed in schedule of procedures (Table 1). The urine pregnancy tests were performed at the Research Site utilizing marketed test kits, or at a certified clinical laboratory; • A fasting blood sample (10 mL) for archiving. This sample was collected only at sites in countries where allowed by local regulations and at sites for which approved by the IRB or IEC. The plasma from the archiving sample was stored frozen in 2 separate equal aliquots, and was used at the Sponsor's discretion to perform repeat analyses described in the protocol or to perform other tests related to cardiovascular health; and • Potential non-genetic bioassays were performed, including but not limited to: Apo A1, Apo C3, Apo E, NMR lipid profile (particle size and number), oxidized LDL, Lp(a), Lp-PLA2, serum fatty-acids concentrations, and gamma-glutamyltransferase (GGT).
In addition, the following were analyzed as tertiary endpoints for the ITT population: • Relationship between on-treatment hs-CRP and the primary and key secondary endpoints; and • Relationship between on-treatment serum eicosapentaenoic acid (EPA) and the primary and key secondary endpoints. […]

[2] = system: symptomatic COVID-19 outpatients with positive SARS-CoV-2 test; experiment: VASCEPA-COVID-19: adverse events; assay type: in vivo, human
From the text: Safety monitoring was undertaken at each study visit in accordance with Health Canada regulations and local reporting guidelines. All serious, unexpected adverse drug reactions (ADRs) were reported to Health Canada in accordance with Division 5 of Part C of the Food and Drug Regulations.
An adverse event (AE) is defined as any untoward medical occurrence, including an exacerbation of a pre-existing condition, in a patient in a clinical investigation who received a pharmaceutical product.
The intensity of the AE should be judged based on the following: • a) Mild: Awareness of sign(s) or symptom(s) that is/are easily tolerated; • b) Moderate: Sufficient discomfort to cause interference with usual activity; or • c) Severe: Incapacitating or causing inability to work or to perform usual activities.

[3] = n = 50, intention-to-treat, usual care 0
[4] = n = 50, intention-to-treat, usual care 6

With `CC/C=C\C/C=C\C/C=C\C/C=C\C/C=C\CCCC(=O)OCC` [icosapent ethyl, eicosapentaenoic acid ethyl ester] the “EPA between group difference, median % change from baseline” value [1] was 358.8%, the “EPA between group difference, median absolute change from baseline” value [1] was 114.9 µg/mL and the “Discontinuations with the 8 g per day loading dose” value ([2]; VASCEPA-COVID-19) was “no discontinuations”. The Tolerability ([2]; VASCEPA-COVID-19, 14 days) was “well tolerated”, the “Serious AEs or deaths” value ([2]; VASCEPA-COVID-19 trial population) was “No serious AEs or deaths occurred” and the “Mild adverse events: Gastrointestinal disorders, %” value [2, 3] was 8%. The “Moderate adverse events: Gastrointestinal disorders, %” value [2, 3] was 2%, the “Moderate adverse events: Respiratory disorders, %” value [2, 4] was 2% and the “Total adverse events, %” value [2, 4] was 12%.
